The target of one assay is T1, human EP4 receptor (Homo sapiens, UniProt P35408).
T1 construct: expressed in transfected cells; HEK-293 is named only for the cAMP assay
As to the kind of experiment: Binding ability to human EP receptors, [3H]PGE2 displacement, EP4. The conditions noted are these: membranes expressing human EP4 receptor; [3H]PGE2 1 nM; Cheng-Prusoff; read-out: pKi (M) EP4 (converted). The protocol:
(§1) Membranes were prepared from cells stably transfected with human EP receptor cDNA. In brief, cells were cultured to confluency, scraped from culture flasks, and centrifuged (800 g, 8 minutes, 4° C.). Cells were twice washed in ice cold homogenisation buffer containing 10 mM Tris-HCl, 1 mM EDTA.2Na, 250 mM sucrose, 1 mM PMSF, 0.3 mM indomethacin, pH 7.4, homogenised and re-centrifuged as before. The supernatant was stored on ice and pellets re-homogenised and re-spun. Supernatants were pooled and centrifuged at 40000 g, 10 minutes, 4° C. Resultant membrane pellets were stored at −80° C. until use.
(§2) For assay, membranes expressing human EP4, EP3, EP2 or EP1 receptors were incubated in Millipore (MHVBN45) plates containing assay buffer, radiolabelled [^3H]PGE2 and 0.1 to 10 000 nM concentrations of compounds. Incubations were performed at suitable temperatures and for suitable times to allow equilibrium to be reached. Non-specific binding was determined in the presence of 10 uM PGE2. Bound and free radiolabel was separated by vacuum manifold filtration using appropriate wash buffers, and bound radiolabel was determined by scintillation counting. Constituents of each of the buffers are included in table 1 below.
(§3) The affinity or pKi of each compound for each receptor was calculated from the concentration causing 50% radioligand displacement (IC50) using the Cheng-Prusoff equation: […]
(§4) This approach follows that set out in Kenakin, T. P., Pharmacologic analysis of drug receptor interaction. Raven Press, New York, 2nd edition.

A further assay has as its target T2, human EP2 receptor (Homo sapiens, UniProt P43116).
T2 construct: expressed in transfected cells; HEK-293 is named only for the cAMP assay
As to the kind of experiment: Binding ability to human EP receptors, [3H]PGE2 displacement, EP2. The note with it: membranes expressing human EP2 receptor; [3H]PGE2 3 nM; Cheng-Prusoff; read-out: pKi (M) EP2 (converted). The protocol: as §1, §2, §3, §4

T2 sequence (P43116 whole entry): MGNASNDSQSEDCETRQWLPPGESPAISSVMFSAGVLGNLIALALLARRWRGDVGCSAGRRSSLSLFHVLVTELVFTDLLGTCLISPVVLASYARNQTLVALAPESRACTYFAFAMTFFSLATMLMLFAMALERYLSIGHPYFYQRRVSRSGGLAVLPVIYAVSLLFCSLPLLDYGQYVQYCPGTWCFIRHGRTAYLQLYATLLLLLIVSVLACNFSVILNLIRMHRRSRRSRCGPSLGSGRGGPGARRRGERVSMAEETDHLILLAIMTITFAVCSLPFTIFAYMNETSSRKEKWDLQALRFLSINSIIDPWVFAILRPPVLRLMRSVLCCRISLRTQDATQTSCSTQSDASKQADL
T1 sequence (P35408 whole entry): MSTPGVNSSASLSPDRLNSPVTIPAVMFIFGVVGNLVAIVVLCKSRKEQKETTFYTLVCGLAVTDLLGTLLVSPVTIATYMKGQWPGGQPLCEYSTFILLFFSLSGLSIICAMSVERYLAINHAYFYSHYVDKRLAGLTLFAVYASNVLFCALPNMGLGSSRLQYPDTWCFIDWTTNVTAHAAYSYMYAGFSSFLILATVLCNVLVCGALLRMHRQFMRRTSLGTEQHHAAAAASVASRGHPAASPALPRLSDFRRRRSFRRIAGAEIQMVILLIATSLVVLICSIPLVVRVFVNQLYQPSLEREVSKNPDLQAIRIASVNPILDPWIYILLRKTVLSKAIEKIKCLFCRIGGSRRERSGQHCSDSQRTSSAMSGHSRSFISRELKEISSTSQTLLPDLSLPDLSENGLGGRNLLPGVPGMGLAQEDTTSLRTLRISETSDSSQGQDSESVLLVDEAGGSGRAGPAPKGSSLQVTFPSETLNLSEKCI

Turning to `O=C(O)C=Cc1cccc(CC(O)c2ccc(-c3ccccc3)o2)c1` (stereo not shown) [Compound 28, 3-{3-[2-Hydroxy-2-(5-phenyl-furan-2-yl)-ethyl]-phenyl}-acrylic acid], the Ki at human EP4 receptor is more than 1e-06 M; on human EP2 receptor, less than 1e-06 M.

Take `N=C(Nc1cccc(C=CC(=O)O)c1)c1cc(-c2ccccc2)ccc1F` [Compound 58, 3-{3-[(4-Fluoro-biphenyl-3-carboximidoyl)-amino]-phenyl}-acrylic acid]: the Ki is more than 1e-06 M on human EP4 receptor and less than 1e-06 M at human EP2 receptor.

On to `O=C(O)C=Cc1cccc(C=Cc2ccc(-c3ccccc3)o2)c1` [Compound 29, 3-{3-[2-(5-Phenyl-furan-2-yl)-vinyl]-phenyl}-acrylic acid], for which the Ki at human EP4 receptor is more than 1e-06 M; at human EP2 receptor, less than 1e-06 M.

As to `O=C(O)C=Cc1cccc(Sc2cccc(-c3ccccc3)n2)c1` [Compound 16, 3-[3-(6-Phenyl-pyridin-2-ylsulfanyl)-phenyl]-acrylic acid], the values for the Ki at human EP4 receptor and at human EP2 receptor were more than 1e-06 M and less than 1e-06 M, respectively.

In the case of `O=C(O)C=Cc1ccc(Cl)c(NC(=O)c2cc(-c3ccccc3)ccc2F)c1` [Compound 52, 3-{4-Chloro-3-[(4-fluoro-biphenyl-3-carbonyl)-amino]-phenyl}-acrylic acid], the Ki is more than 1e-07 M at human EP4 receptor and less than 1e-08 M on human EP2 receptor.

As to `O=C(O)C=Cc1cccc(NC(=O)c2ccc(-c3ccccc3)o2)n1` [Compound 40, 3-{6-[(5-Phenyl-furan-2-carbonyl)-amino]-pyridin-2-yl}-acrylic acid], the Ki on human EP4 receptor was more than 1e-06 M; on human EP2 receptor, less than 1e-06 M.

Turning to `O=C(O)C=Cc1cccc(-c2nc3cc(-c4ccccc4)ccc3o2)c1` [Compound 34, 3-[3-(5-Phenyl-benzoxazol-2-yl)-phenyl]-acrylic acid], the values for the Ki at human EP4 receptor and at human EP2 receptor were more than 1e-06 M and less than 1e-06 M, respectively.

`O=C(O)C=Cc1cccc(NC(=O)c2ccc(C(=O)c3ccccc3)o2)c1` [Compound 11, 3-{3-[(5-Benzoyl-furan-2-carbonyl)-amino]-phenyl}-acrylic acid]: the Ki is more than 1e-06 M at human EP4 receptor and less than 1e-07 M at human EP2 receptor.

Regarding `O=C(O)C=Cc1cccc(NC(=O)c2ccc3oc4ccccc4c3c2)c1` [Compound 20, 3-{3-[(Dibenzofuran-2-carbonyl)-amino]-phenyl}-acrylic acid], the Ki on human EP4 receptor is more than 1e-06 M; at human EP2 receptor, less than 1e-07 M.

As for `O=C(O)C=Cc1cccc(NC(=O)c2ccc(Oc3ccccc3)o2)c1` [Compound 5, 3-{3-[(5-Phenoxy-furan-2-carbonyl)-amino]-phenyl}-acrylic acid], the values for the Ki on human EP4 receptor and at human EP2 receptor were more than 1e-06 M and less than 1e-07 M, respectively.

In the case of `O=C(O)C=Cc1ccc(F)c(NC(=O)c2ccc(-c3ccccc3)o2)c1` [Compound 45, 3-{4-Fluoro-3-[(5-phenyl-furan-2-carbonyl)-amino]-phenyl}-acrylic acid], the figures for the Ki at human EP4 receptor and on human EP2 receptor were more than 1e-06 M and less than 1e-07 M, respectively.
